Results on 3 compounds are retold here after patent US20060100284A1, “Growth promotor” (priority 2002, published 2006).

For test [1], the system named is weaned pigs and swine grown for pork meat. Conditions: Partanen et al. 2002; cited from earlier work.
Test [2] has as its system weaned pigs and growing swine. The test is described as follows: Swine feeding test with feed additives. Type of test: in vivo. As for the experimental part:
The composition of the invention was tested using weaned pigs and growing swine. The test comprised a total of 240 swine from 30 different litters. […] The composition of the invention was compared to a control without additives and to an antibiotic feed additive (Avilamycin) at the weaning and growth stage.

In test [3] the test system is slaughter animals. The following applies: Kirchgessner et al. 1995; cited from earlier work.
[4] abbreviates: Growth and final growth stage, additive in feed (6 g/kg for acids).
Where [5] appears, read: Weaning stage, additive in feed (8 g/kg for acids).

Regarding `O=CO` [F, formic acid], in test [1], the “growth promoter effect in feed” value is “acts as a growth promoter”. Moreover, the figures for the Daily growth in test [2] (setting [4]) and in test [2] (setting [5]) were 869 g/day and 308 g/day, respectively. For the same compound, the Final weight in test [2] (setting [4]) was 106.0 kg; in test [2] (setting [5]), 18.5 kg.
In the case of `C/C=C/C=C/C(=O)O` [sorbic acid], in test [3], the “increase in weight of slaughter animals” value is “enhanced”.
avilamycin: the Daily growth in test [2] (setting [4]) turned out to be 845 g/day; in test [2] (setting [5]), 335 g/day. Further, the Final weight in test [2] (setting [4]) was found to be 107.1 kg; in test [2] (setting [5]), 19.3 kg.
